# Measurements from patent publication US20230085307A1, “PYRIDAZINONE COMPOUND AND HERBICIDE” (NISSAN CHEMICAL CORPORATION, priority 2019, published 2023).
# Columns and labels:
# blackgrass = assay: Test Example 5: herbicidal effect by foliage application, plastic box (Table 20, symbol J); format: in vivo, blackgrass (Alopecurus myosuroides); conditions: 320 g/ha; for herbicidal effect on J: blackgrass (evaluation grade 0-5): foliage application after 14-day growth, evaluated three weeks after application
# In short: (§1)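 Sow seeds spot-wise in sterilized diluvial soil; cover with ~1.5 cm soil. Grow 14 days in greenhouse, 25° C. to 30° C. Spray foliage with emulsion diluted to predetermined amount. Rate effect after 3 weeks.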
# Japanese bulrush = assay: Test Example 2: herbicidal activity, application during weed generation under submerged conditions (Table 17, symbol B); format: in vivo, Japanese bulrush (Schoenoplectus juncoides); conditions: AAH 320 g/ha; application during weed generation, submerged conditions
# Method: (§2) [Test Example 2] Herbicidal Activity Test by Application during Weed Generation under Submerged Conditions After alluvial soil was placed into 1/10000 are of Wagner pot, water was poured and mixed to form a submerged condition having a water depth of 4 cm. Seeds of late watergrass, Japanese bulrush, and oval-leafed pondweed were sowed in a mixed manner in the aforementioned pot, and the pot was placed in a greenhouse at 25° C. to 30° C. for growth of the plants. When late watergrass, Japanese bulrush, and oval-leafed pondweed were grown to one leaf stage to two leaf stage, the emulsion agent of the compound of the present invention prepared according to Formulation Example 2 was diluted with water so as to achieve a predetermined herbicide amount, and the diluted emulsion agent was applied to the surface of the water. Three weeks after the herbicide application, the effect of the herbicide on each plant was evaluated according to the criteria of Test Example 1.
# Chinese sprangletop = assay: Test Example 3: herbicidal effect by foliage application, Wagner pot (Table 18, symbol D); format: in vivo, chinese sprangletop (Leptochloa chinensis); conditions: for herbicidal effect on Chinese sprangletop (D): 320 g/ha
# In short: (§3)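 Plants were sown in alluvial soil held under 0.1–0.5 cm standing water and grown 14 days in a greenhouse at 25–30 °C. An emulsifiable formulation, water-diluted to the set dose, was then sprayed onto the foliage, and effects were scored three weeks later using previously defined criteria.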
# oval-leafed pondweed = assay: Test Example 2: herbicidal activity, application during weed generation under submerged conditions (Table 17, symbol C); format: in vivo, oval-leafed pondweed (Monochoria vaginalis); conditions: AAH 320 g/ha; application during weed generation, submerged conditions
# Method: as §2
# windgrass = assay: Test Example 5: herbicidal effect by foliage application, plastic box (Table 20, symbol L); format: in vivo, windgrass (Apera spica-venti); conditions: 320 g/ha; for herbicidal effect on L: windgrass (evaluation grade 0-5): foliage application after 14-day growth, evaluated three weeks after application
# In short: as §1
# Italian ryegrass = assay: Test Example 5: herbicidal effect by foliage application, plastic box (Table 20, symbol K); format: in vivo, Italian ryegrass (Lolium multiflorum); conditions: 320 g/ha; for herbicidal effect on K: Italian ryegrass (evaluation grade 0-5): foliage application after 14-day growth, evaluated three weeks after application
# In short: as §1
# chickweed = assay: Test Example 5: herbicidal effect by foliage application, plastic box (Table 20, symbol P); format: in vivo, common chickweed (Stellaria media); conditions: 320 g/ha; for herbicidal effect on P: chickweed (evaluation grade 0-5): foliage application after 14-day growth, evaluated three weeks after application
# In short: as §1
# persian speedwell = assay: Test Example 5: herbicidal effect by foliage application, plastic box (Table 20, symbol R); format: in vivo, Persian speedwell (Veronica persica); conditions: 320 g/ha; for herbicidal effect on R: persian speedwell (evaluation grade 0-5): foliage application after 14-day growth, evaluated three weeks after application
# In short: as §1
# wild oat = assay: Test Example 5: herbicidal effect by foliage application, plastic box (Table 20, symbol I); format: in vivo, wild oat (Avena fatua); conditions: 320 g/ha; for herbicidal effect on I: wild oat (evaluation grade 0-5): foliage application after 14-day growth, evaluated three weeks after application
# In short: as §1
# barnyard grass [1] = assay: Test Example 5: herbicidal effect by foliage application, plastic box (Table 20, symbol H); format: in vivo, barnyard grass (Echinochloa crus-galli); conditions: 320 g/ha; for herbicidal effect on H: barnyard grass (evaluation grade 0-5): foliage application after 14-day growth, evaluated three weeks after application
# In short: as §1
# lambsquarters = assay: Test Example 5: herbicidal effect by foliage application, plastic box (Table 20, symbol O); format: in vivo, lambsquarters (Chenopodium album); conditions: 320 g/ha; for herbicidal effect on O: lambsquarters (evaluation grade 0-5): foliage application after 14-day growth, evaluated three weeks after application
# In short: as §1
# rice flat sedge = assay: Test Example 3: herbicidal effect by foliage application, Wagner pot (Table 18, symbol E); format: in vivo, rice flat sedge (Cyperus iria); conditions: for herbicidal effect on rice flat sedge (E): 320 g/ha
# In short: as §3
# redroot pigweed = assay: Test Example 5: herbicidal effect by foliage application, plastic box (Table 20, symbol N); format: in vivo, redroot pigweed (Amaranthus retroflexus); conditions: 320 g/ha; for herbicidal effect on N: redroot pigweed (evaluation grade 0-5): foliage application after 14-day growth, evaluated three weeks after application
# In short: as §1
# southern crabgrass = assay: Test Example 5: herbicidal effect by foliage application, plastic box (Table 20, symbol F); format: in vivo, southern crabgrass (Digitaria ciliaris); conditions: 320 g/ha; for herbicidal effect on F: southern crabgrass (evaluation grade 0-5): foliage application after 14-day growth, evaluated three weeks after application
# In short: as §1
# velvetleaf = assay: Test Example 5: herbicidal effect by foliage application, plastic box (Table 20, symbol M); format: in vivo, velvetleaf (Abutilon theophrasti); conditions: 320 g/ha; for herbicidal effect on M: velvetleaf (evaluation grade 0-5): foliage application after 14-day growth, evaluated three weeks after application
# In short: as §1
# green foxtail = assay: Test Example 5: herbicidal effect by foliage application, plastic box (Table 20, symbol G); format: in vivo, green foxtail (Setaria viridis); conditions: 320 g/ha; for herbicidal effect on G: green foxtail (evaluation grade 0-5): foliage application after 14-day growth, evaluated three weeks after application
# In short: as §1
# barnyard grass [2] = assay: Test Example 3: herbicidal effect by foliage application, Wagner pot (Table 18, symbol H); format: in vivo, barnyard grass (Echinochloa crus-galli); conditions: for herbicidal effect on barnyard grass (H): 320 g/ha
# In short: as §3
# late watergrass = assay: Test Example 2: herbicidal activity, application during weed generation under submerged conditions (Table 17, symbol A); format: in vivo, late watergrass (Echinochloa oryzicola); conditions: AAH 320 g/ha; application during weed generation, submerged conditions
# In short: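 In this pot test, flooded alluvial soil (water depth 4 cm) holds all three species sown as a mixture. Once seedlings have one to two leaves, the compound's emulsion, thinned with water to the intended dose, is poured on the water; grading follows after three weeks on the earlier criteria.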
# [3] = foliage application, three weeks after application
# [4] = amount of applied herbicide 320 g/ha
Structure (SMILES),"herbicidal effect rating, B: Japanese bulrush (Japanese bulrush)","herbicidal effect rating, C: oval-leafed pondweed (oval-leafed pondweed)","herbicidal effect rating, A: late watergrass (late watergrass)",herbicidal effect on J: blackgrass (evaluation grade 0-5) (blackgrass),herbicidal effect on Chinese sprangletop (D) (Chinese sprangletop),herbicidal effect on L: windgrass (evaluation grade 0-5) (windgrass),herbicidal effect on K: Italian ryegrass (evaluation grade 0-5) (Italian ryegrass),herbicidal effect on P: chickweed (evaluation grade 0-5) (chickweed),herbicidal effect on R: persian speedwell (evaluation grade 0-5) (persian speedwell),herbicidal effect on I: wild oat (evaluation grade 0-5) (wild oat),herbicidal effect on H: barnyard grass (evaluation grade 0-5) (barnyard grass [1]),herbicidal effect on O: lambsquarters (evaluation grade 0-5) (lambsquarters),herbicidal effect on rice flat sedge (E) (rice flat sedge),herbicidal effect on N: redroot pigweed (evaluation grade 0-5) (redroot pigweed),herbicidal effect on F: southern crabgrass (evaluation grade 0-5) (southern crabgrass),herbicidal effect on M: velvetleaf (evaluation grade 0-5) (velvetleaf),herbicidal effect on G: green foxtail (evaluation grade 0-5) (green foxtail),herbicidal effect on barnyard grass (H) (barnyard grass [2]),further results
CCCC(=O)Oc1c(C)nn(C)c(=O)c1-c1c(-c2ccc(Cl)cc2)sc2cc(F)ccc12 [3-016],0 (Herbicidal rate of 5% or less (almost no effect)),0 (Herbicidal rate of 5% or less (almost no effect)),3 (Herbicidal rate of 40% or more and less than 70%),,,,,,,,,,,,,,,,"J: blackgrass, herbicidal effect grade (blackgrass; [3]): 0 (Herbicidal rate of 5% or less (almost no effect)); herbicidal effect on D: Chinese sprangletop (Chinese sprangletop; [4]): 4 (Herbicidal rate of 70% or more and less than 90%); L: windgrass, herbicidal effect grade (windgrass; [3]): 5 (Herbicidal rate of 90% or more (almost completely withered)); K: Italian ryegrass, herbicidal effect grade (Italian ryegrass; [3]): 0 (Herbicidal rate of 5% or less (almost no effect)); P: chickweed, herbicidal effect grade (chickweed; [3]): 3 (Herbicidal rate of 40% or more and less than 70%); R: persian speedwell, herbicidal effect grade (persian speedwell; [3]): 4 (Herbicidal rate of 70% or more and less than 90%); I: wild oat, herbicidal effect grade (wild oat; [3]): 1 (Herbicidal rate of 5% or more and less than 20%); H: barnyard grass, herbicidal effect grade (barnyard grass [1]; [3]): 0 (Herbicidal rate of 5% or less (almost no effect)); O: lambsquarters, herbicidal effect grade (lambsquarters; [3]): 3 (Herbicidal rate of 40% or more and less than 70%); herbicidal effect on E: rice flat sedge (rice flat sedge; [4]): 4 (Herbicidal rate of 70% or more and less than 90%); N: redroot pigweed, herbicidal effect grade (redroot pigweed; [3]): 1 (Herbicidal rate of 5% or more and less than 20%); F: southern crabgrass, herbicidal effect grade (southern crabgrass; [3]): 0 (Herbicidal rate of 5% or less (almost no effect)); M: velvetleaf, herbicidal effect grade (velvetleaf; [3]): 3 (Herbicidal rate of 40% or more and less than 70%); G: green foxtail, herbicidal effect grade (green foxtail; [3]): 0 (Herbicidal rate of 5% or less (almost no effect)); herbicidal effect on H: barnyard grass (barnyard grass [2]; [4]): 3 (Herbicidal rate of 40% or more and less than 70%)"
CCCC(=O)Oc1c(C)nn(C)c(=O)c1-c1c(-c2ccc(C(F)(F)F)cc2F)sc2c(Cl)cccc12 [4-038],3 (Herbicidal rate of 40% or more and less than 70%),0 (Herbicidal rate of 5% or less (almost no effect)),2 (Herbicidal rate of 20% or more and less than 40%),0 (Herbicidal rate of 5% or less (almost no effect)),5 (Herbicidal rate of 90% or more (almost completely withered)),5 (Herbicidal rate of 90% or more (almost completely withered)),4 (Herbicidal rate of 70% or more and less than 90%),4 (Herbicidal rate of 70% or more and less than 90%),4 (Herbicidal rate of 70% or more and less than 90%),2 (Herbicidal rate of 20% or more and less than 40%),0 (Herbicidal rate of 5% or less (almost no effect)),0 (Herbicidal rate of 5% or less (almost no effect)),4 (Herbicidal rate of 70% or more and less than 90%),0 (Herbicidal rate of 5% or less (almost no effect)),0 (Herbicidal rate of 5% or less (almost no effect)),0 (Herbicidal rate of 5% or less (almost no effect)),0 (Herbicidal rate of 5% or less (almost no effect)),4 (Herbicidal rate of 70% or more and less than 90%),
CCCC(=O)Oc1c(C)nn(C)c(=O)c1-c1c(-c2ccc(Cl)cc2)sc2c(Cl)cccc12 [4-018],3 (Herbicidal rate of 40% or more and less than 70%),3 (Herbicidal rate of 40% or more and less than 70%),0 (Herbicidal rate of 5% or less (almost no effect)),4 (Herbicidal rate of 70% or more and less than 90%),4 (Herbicidal rate of 70% or more and less than 90%),5 (Herbicidal rate of 90% or more (almost completely withered)),3 (Herbicidal rate of 40% or more and less than 70%),5 (Herbicidal rate of 90% or more (almost completely withered)),4 (Herbicidal rate of 70% or more and less than 90%),3 (Herbicidal rate of 40% or more and less than 70%),0 (Herbicidal rate of 5% or less (almost no effect)),0 (Herbicidal rate of 5% or less (almost no effect)),3 (Herbicidal rate of 40% or more and less than 70%),3 (Herbicidal rate of 40% or more and less than 70%),0 (Herbicidal rate of 5% or less (almost no effect)),4 (Herbicidal rate of 70% or more and less than 90%),0 (Herbicidal rate of 5% or less (almost no effect)),4 (Herbicidal rate of 70% or more and less than 90%),
